Assays:
[1] = test system: pspA (pneumococcal surface protein A) transcript; assay: RT-qPCR, relative expression of virulence gene pspA; assay type: cell-based, Streptococcus pneumoniae; conditions: TIGR4; 10 μM CPP-anti-rpoB PNA; normalised to 5S rRNA; n = 3
Method: (§1) Because the product of rpoB is the β-subunit of the bacterial RNA-polymerase, which is responsible for RNA synthesis, downregulation of rpoB by treatment with antisense PNAs is expected to affect gene expression. Therefore, we tested the relative expression of two virulence factor genes following treatment with 10 μM CPP-anti-rpoB PNAs compared to expression in the mock-treated control as an example (Fig. 3C and D).
(§2) For RNA isolation, 450 μL bacterial suspension (10^5 CFU/mL in BHI) was prepared for each experimental condition, treated with CPP-PNA conjugates as indicated, and incubated in a 2-mL reaction tube for 6 h at 37°C and 7 rpm (Rotor SB3; Stuart, Staffordshire, United Kingdom). Subsequently, five samples per condition were pooled. Bacteria were pelleted immediately, shock-frozen in liquid nitrogen, and stored at −80°C until use. Total RNA was extracted according to the protocol published by Li-Korotky et al. ([46]). […]
(§3) cDNA synthesis was performed using the Superscript First-Strand Synthesis system for RT-qPCR (Invitrogen, Thermo Fisher Scientific, Darmstadt, Germany). Quantitative PCR amplification was conducted with SYBR Green (Thermo Fisher Scientific) using the LightCycler 480 real-time PCR system (Roche Diagnostics GmbH, Mannheim, Germany). […] Relative expression was calculated using the 2^–ΔΔ^CT method ([27]). […]

[2] = test system: ply (pneumolysin) transcript; assay: RT-qPCR, relative expression of virulence gene ply; assay type: cell-based, Streptococcus pneumoniae; conditions: TIGR4; 10 μM CPP-anti-rpoB PNA; normalised to 5S rRNA; n = 3
Method: as §1, §2, §3

rpoB mRNA = assay: RT-qPCR, relative expression of rpoB; assay type: cell-based, Streptococcus pneumoniae; conditions: TIGR4; 10 μM CPP-anti-rpoB PNA; 6 h; normalised to 5S rRNA; n = 3
Method: We investigated the influence of treatment with CPP-conjugated antisense PNAs on the amount of target gene mRNA in S. pneumoniae using reverse transcription-quantitative PCR (RT-qPCR) (Fig. 3). S. pneumoniae strain TIGR4 was treated with a sublethal dose (log CFU reduction of <2) of CPP-PNA conjugates. Transcript abundance of the 5S rRNA gene was used for normalization ([27]). Target gene mRNA levels in mock-treated bacteria served as controls. Treatment with 7.5 μM CPP-anti-gyrA PNAs and 10 μM CPP-anti-rpoB PNAs led to significant reductions in the respective target gene transcripts compared to the untreated control sample (Fig. 3).
For RNA isolation, 450 μL bacterial suspension (10^5 CFU/mL in BHI) was prepared for each experimental condition, treated with CPP-PNA conjugates as indicated, and incubated in a 2-mL reaction tube for 6 h at 37°C and 7 rpm (Rotor SB3; Stuart, Staffordshire, United Kingdom). Subsequently, five samples per condition were pooled. […]
as §3

[3] = test system: Detroit 562 cells infected with S. pneumoniae TIGR4; assay: Cell-based infection model, bacterial CFU; parameters: species or system Streptococcus pneumoniae; conditions: 20 μM CPP-PNA; MOI 5; 3 h at 37°C; n = 3
Method: Detroit 562 human pharyngeal epithelial cells were infected with S. pneumoniae TIGR4 at a multiplicity of infection (MOI) of 5. Cells were treated with 20 μM (RXR)4XB-anti-gyrA PNA or scrambled control PNA, respectively. As a positive control, 1 μg levofloxacin, corresponding to 3× MIC, was added. Following incubation for 3 h at 37°C, bacterial CFU counts were determined for CPP-antisense PNA-treated samples and compared to those in nontreated samples and in samples containing scrambled control PNAs (Fig. 4A). Treatment with (RXR)4XB-anti-gyrA caused a log CFU reduction of 1. Addition of levofloxacin led to a log CFU reduction of 2.
The human pharynx carcinoma epithelial cell line Detroit 562 (ATCC CCL138) was cultivated in Dulbecco’s modified Eagle medium (DMEM)/F12 (1:1) (Thermo Fisher Scientific, Schwerte, Germany) supplemented with 10% fetal bovine serum at 37°C and 5% CO2. Confluent Detroit 562 cells were infected with S. pneumoniae TIGR4 at an MOI of 5. Cultures were treated with 20 μM CPP-PNAs or 1 μg levofloxacin, respectively, and incubated for 3 h at 37°C, 5% CO2. After incubation, the supernatant was collected. Adherent cells were detached with Accutase solution (Merck KGaA, Darmstadt, Germany), collected by centrifugation for 10 min at 4,000 × g, and combined with the supernatant. Cells were pelleted by centrifugation, washed twice with PBS, and suspended in PBS. CFU/well was determined following serial dilution and plating on Todd Hewitt Broth, supplemented with Yeast, (THY) agar plates.

[4] = test system: G. mellonella larvae infected with S. pneumoniae TIGR4; assay: G. mellonella infection model, bacterial load; assay type: in vivo, Galleria mellonella; conditions: 10 nmol CPP-PNA/larva; 24 h postinfection; n = 4 larvae per group, three experiments
Method: To establish the antibacterial effect of PNAs in the invertebrate infection model, we assessed the bacterial loads in infected larvae (Fig. 6). Larvae were infected and subsequently treated with NaCl (mock), 10 nmol CPP-PNA, or levofloxacin (positive control), respectively. From each group, four larvae were homogenized at 24 h postinfection. CFU/larva were determined following serial dilutions of the suspension and plating on selective medium. Treatment with (RXR)4XB-anti-gyrA caused a log CFU reduction of 1 compared to that in the mock-treated larvae. The addition of 1 or 10 μg levofloxacin led to a log CFU reduction of 2 or 6, respectively.
For determination of bacterial load, larvae were infected and subsequently treated with NaCl (mock), CPP-PNAs, or levofloxacin (positive control). At 24 h after infection, larvae were homogenized. Following serial dilution, the suspension was plated on selective medium (BD Columbia CNA Agar with 5% sheep blood; Becton Dickinson GmbH, Heidelberg, Germany). Agar plates were incubated overnight at 37°C, 5% CO2. CFU/larva was determined by visual inspection. Colony identity was verified on a random basis by colony PCR using ply-specific primers.

| Substance | Expression of pspA relative to mock-treated control [1] | Expression of ply relative to mock-treated control [2] | rpoB transcript level relative to mock-treated control (rpoB mRNA) | log CFU reduction in infected Detroit 562 cells [3] | log CFU reduction of bacterial load compared to mock-treated larvae [4] |
| --- | --- | --- | --- | --- | --- |
| GRKKRRQRRRYK-eg-ctgccaagatga [TAT-anti-rpoB PNA, HIV-1 TAT (48–57) peptide coupled to antisense PNA against S. pneumoniae rpoB] | 57% | 45% | 45% | – | – |
| RXRRXRRXRRXRXB-eg-tgcattaata [(RXR)4XB-anti-gyrA PNA, (RXR)4XB peptide coupled to antisense PNA against gyrA] | – | – | – | 1 | 1 |
| RXRRXRRXRRXRXB-eg-ctgccaagatga [(RXR)4XB-anti-rpoB PNA, (RXR)4XB peptide coupled to antisense PNA against rpoB] | no significant reduction | 56% | 51% | – | – |

— publication PMC9784828, “Antimicrobial Activity of Peptide-Coupled Antisense Peptide Nucleic Acids in Streptococcus pneumoniae” (Microbiology Spectrum, 2022)
